Measurements reported in US4038404A, “1,2,4-Triazole antimycotic compositions and use thereof” (Bayer Aktiengesellschaft, priority 1972, dated 1977).
In brackets after ≈: the same amount, converted by molar mass. Read-outs that look alike come from different tables or passages of the source.

Legend:
Candida albicans [1] = assay: Series dilution test in vitro, Candida albicans; assay type: cell-based
Method: (§1) 1. DETERMINATION OF THE ANTI-MYCOTIC ACTION SPECTRUM IN VITRO BY THE SERIES DILUTION TEST.
(§2) Description of the Experiment
(§3) The nutrient substrates used were Sabourauds' milieu d'epreuve for dermatophytes and mould fungi and meat broth-glucose bouillon for blastomyces and biphase fungi. The incubation temperature was 28° C. and the incubation time was 24 to 96 hours.

Penicillium commune = assay: Series dilution test in vitro, Penicillium commune; assay type: cell-based; details: read-out: Minimum inhibitory concentration (MIC)
Method: as §1, §2, §3

Candida albicans [2] = assay: Candidosis of mice; assay type: in vivo, Mice of Type SPF-CF1; details: 2 × 100 mg/kg orally, one hour before and seven hours after infection, survivors on 6th day
Method: as §2
Mice of Type SPF-CF1 were intravenously infected with 1-2 × 10^6 logarithmically growing Candida cells suspended in physiological sodium chloride solution.
One hour before and seven hours after infection the animals were treated orally with 2 × 100 mg of the preparations/kg of body weight.
Untreated animals died of the infection 3 to 6 days after infection. The survival rate on the 6th day after infection was about 5% in the case of untreated control animals.

Microsporon felineum = assay: Series dilution test in vitro, Microsporon felineum; assay type: cell-based; details: 28° C., 24 to 96 hours; read-out: Minimum inhibitory concentration (MIC)
Method: as §1, §2, §3

Aspergillus niger = assay: Series dilution test in vitro, Aspergillus niger; assay type: cell-based; details: for MIC: Aspergillus niger, read-out: Minimum inhibitory concentration (MIC)
Method: as §1, §2, §3

[3] = tested on: Trichophyton mentagrophytes; assay: Series dilution test in vitro, Trichophyton mentagrophytes; assay type: cell-based; details: for MIC: Trichophyton mentagrophytes, read-out: Minimum inhibitory concentration (MIC)
Method: as §1, §2, §3

[4] = tested on: Trichophyton mentagrophytes; assay: Topical application in experimental trichophytosis of guinea pigs; assay type: in vivo; design: key to the marks not given beside the values; details: 1% strength solution applied locally for 11 to 14 days
Excerpt: a. Topical Application in Experimental Trichophytosis of Guinea Pigs (Pathogen: Trichophyton metagrophytes)
as §2
A 1% strength solution of the active compounds in a dimethylsulphoxide/glycerine/water mixture (1:3:6) or in polyethylene glycol 400 was applied locally for 11 to 14 days after the trichophytosis had been produced experimentally.

[5] = tested on: Trichophyton mentagrophytes; assay: Oral administration on Quinckeanum trichophytosis of white mice; assay type: in vivo; design: key to the marks not given beside the values; details: 100 mg/kg orally twice daily up to the eighth day of the infection
Method: b. Action, on Oral Administration, on Quinckeanum Trichophytosis of White Mice
It was possible to suppress the development of the Quinckeanum infection in mice with doses of 100 mg/kg of body weight given orally twice daily up to the eighth day of the infection.

[6] = n.s. (no serum added), 28° C., 24 to 96 hours, read-out: Minimum inhibitory concentration (MIC)
[7] = w.s. (with 30% serum added), 28° C., 24 to 96 hours, read-out: Minimum inhibitory concentration (MIC)
[8] = n.s. (no serum added), 28° C., 24 to 96 hours
[9] = w.s. (with 30% serum added), 28° C., 24 to 96 hours
[10] = n.s. (no serum added), * = 90% inhibition of growth
[11] = w.s. (with 30% serum added), * = 90% inhibition of growth
[12] = n.s. (no serum added), * = 90% inhibition of growth, read-out: Minimum inhibitory concentration (MIC)

Structure (SMILES)	MIC (Candida albicans [1]; [6]) [µg/mL]	MIC (Candida albicans [1]; [7]) [µg/mL]	MIC (Penicillium commune; 28° C., 24 to 96 hours) [µg/mL]	Action against Candida albicans (Candida albicans [2])	MIC (Microsporon felineum) [µg/mL]	MIC (Aspergillus niger; [8]) [µg/mL]	MIC (Aspergillus niger; [9]) [µg/mL]	MIC [3, 8] [µg/mL]	MIC [3, 9] [µg/mL]	MIC (Candida albicans [1]; [12]) [µg/mL]	also measured
CC(C)(C)C(=O)C(Oc1ccc(Cl)cc1Cl)n1cncn1 (stereo not shown) [Example 1, 1-[(2',4'-dichloro)-phenoxy]-1-[1',2', 4'-triazolyl-(1')]-3,3-dimethyl-butan-2-one]	40 (≈ 122 µM)	40 (≈ 122 µM)	> 100	+ (50% survivors on the 6th day after infection)	100 (≈ 305 µM)	100 (≈ 305 µM)	100 (≈ 305 µM)	4 (≈ 12.2 µM)	4 (≈ 12.2 µM)		
CC(C)(C)C(=O)C(Oc1ccc(Cl)cc1)(c1ccccc1)n1cncn1 (stereo not shown) [Example 5, 1-[(4'-chlorophenoxy)]-1-[phenyl]-1-[1',2',4'triazolyl-(1')]-3,3-dimethyl-butan-2-one]	> 64		> 64		> 64	> 64	> 64				MIC [3, 10]: 1 µg/mL (≈ 2.7 µM); MIC [3, 11]: 32 µg/mL (≈ 86.5 µM)
O=C(c1ccc(Cl)cc1)C(Oc1ccc(Cl)cc1Cl)n1cncn1 (stereo not shown) [Example 6]			> 100	+ (50% survivors on the 6th day after infection)	40 (≈ 105 µM)	100 (≈ 261 µM)	> 100			10 (≈ 26.1 µM)	MIC (Candida albicans [1]; w.s. (with 30% serum added), * = 90% inhibition of growth, read-out: Minimum inhibitory concentration (MIC)): 100 µg/mL (≈ 261 µM); MIC [3, 10]: 4 µg/mL (≈ 10.5 µM); MIC [3, 11]: 10 µg/mL (≈ 26.1 µM)
CC(C)(C)C(=O)C(Oc1ccc(F)cc1)n1cncn1 (stereo not shown) [Example 9]	100 (≈ 361 µM)	> 64	> 64	++ (60-80% survivors on the 6th day after infection)				8 (≈ 28.8 µM)	32 (≈ 115 µM)		
CC(C)(C)C(=O)C(Oc1ccc(-c2ccccc2)cc1)n1cncn1 (stereo not shown) [Example 12]		100 (≈ 298 µM)		+ (50% survivors on the 6th day after infection)	40 (≈ 119 µM)		100 (≈ 298 µM)	< 1	< 1	100 (≈ 298 µM)	MIC (Penicillium commune; * = 90% inhibition of growth): 100 µg/mL (≈ 298 µM); Action against Trichophyton mentagrophytes [4]: ++++; MIC (Aspergillus niger; [10]): 40 µg/mL (≈ 119 µM); Oral action against Trichophyton mentagrophytes [5]: ++
CC(C)(C)C(=O)C(Oc1ccccc1)n1cncn1 (stereo not shown) [Example 15]	> 64		> 64					32 (≈ 123 µM)	32 (≈ 123 µM)		
Cc1ccc(OC(C(=O)C(C)(C)C)n2cncn2)cc1C (stereo not shown) [Example 17]		> 64	> 64					32 (≈ 111 µM)	> 64	64 (≈ 223 µM)	
CC(C)(C)C(=O)C(Oc1cc(Cl)c(Cl)cc1Cl)n1cncn1 (stereo not shown) [Example 20]	> 64		> 64					32 (≈ 88.2 µM)	> 64		
CC(C)(C)C(=O)C(Oc1ccc(Cl)cc1Cl)(c1ccccc1)n1cncn1 (stereo not shown) [Example 21]	> 64	> 64	> 64					8 (≈ 19.8 µM)	64 (≈ 158 µM)		
CC(C)(C)C(=O)C(Oc1ccc(Cl)cc1)n1cncn1 (stereo not shown) [Example 27]				++++ (>80% survivors on the 6th day after infection)							MIC (Candida albicans [1]; read-out: Minimum inhibitory concentration (MIC), n.s. (no serum added), 28° C., 24 to 96 hours): 40 µg/mL (≈ 136 µM); MIC (Candida albicans [1]; read-out: Minimum inhibitory concentration (MIC), w.s. (with 30% serum added), 28° C., 24 to 96 hours): 100 µg/mL (≈ 340 µM); MIC (Penicillium commune): > 100 µg/mL; Action against Trichophyton mentagrophytes [4]: ++; MIC (Aspergillus niger): 100 µg/mL (≈ 340 µM); Minimum inhibitory concentration (MIC) (Aspergillus niger; [9]): 100 µg/mL (≈ 340 µM); MIC [3]: 4 µg/mL (≈ 13.6 µM); Minimum inhibitory concentration (MIC) [3, 9]: 4 µg/mL (≈ 13.6 µM); Oral action against Trichophyton quinckeanum [5]: ++++
